{
  "source": "patent US8785211B2",
  "about": "(priority 2005, dated 2014)",
  "target": "wild type α-HL single channel (Staphylococcus aureus, UniProt P09616)",
  "sequence (P09616 27-319 limits assumed)": "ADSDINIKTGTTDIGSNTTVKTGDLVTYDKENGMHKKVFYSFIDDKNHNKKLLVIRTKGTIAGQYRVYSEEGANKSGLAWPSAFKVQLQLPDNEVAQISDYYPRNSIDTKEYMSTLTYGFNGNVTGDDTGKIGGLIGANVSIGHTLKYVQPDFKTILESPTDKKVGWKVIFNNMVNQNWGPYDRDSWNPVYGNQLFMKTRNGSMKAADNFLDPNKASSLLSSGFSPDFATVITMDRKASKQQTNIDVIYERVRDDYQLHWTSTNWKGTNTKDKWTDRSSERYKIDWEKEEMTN",
  "format": "binding",
  "data": [
    {"substance": "heptakis-6-amino-β-cyclodextrin [am7-βCD]", "values": [
      {"measurement": "Cyclodextrin binding to wild type pore", "value": "led to cyclodextrin binding events"}
    ]}
  ]
}
